Reference: patent publication EP1021178B1, “SELENOPHENE ANTI-TUMOR AGENTS” (Purdue Research Foundation, priority 1996, dated 1997)

What was measured:
Assay in all cases: NCI human tumor cell panel
Type in all cases: cell-based
786-0 = conditions: 786-0, read-out: Log10 LC50 (converted)
Source text: (§1) Considering the diversity of tumors in terms of cell type, morphology, growth rate and other cellular characteristics, the U.S. National Cancer Institute (NCI) has developed a "disease-oriented" approach to antitumor activity screening (M.R. Boyd, in "Principle of Practice of Oncology" J.T. Devita, S. Hellman, S.A. Rosenberg (Eds.) Vol. 3, PPO Update, No. 10, 1989). This in vitro prescreening system is based on the measurement of antitumor cytotoxicity against human tumor cell line panels consisting of approximately 60 cell lines of major human tumors (including leukemia and slower growing tumor cells such as lung, colon, breast, skin, kidney, etc.). The most important advantage of the new in vitro screening panels is the opportunity to identify compounds that are selectively more cytotoxic to cells of slowly growing solid tumors than to rapidly growing leukemia cells.
(§2) The cytotoxic activity of the present selenophene compounds have been measured utilizing two different assays or screens. The first screen measures the cytotoxicity against a panel of sixty different human tumor cell lines. This assay provides data regarding the general cytotoxicity of an individual compound. In particular this type of assay is useful in identifying compounds which have enhanced cytotoxic activity against slow growing tumors as compared to faster growing tumor cells such as leukemia tumor cell lines. The identification of such compounds is critical since previously identified antitumor agents have low cytotoxic activity against slower growing tumors. […] The specificity of a cytotoxic compound for tumor cell lines relative to normal cells is an important characteristic of an effective antitumor agent.
(§3) Antitumor cytotoxicity data generated from the National Cancer Institute human tumor cell panels can also be expressed in a graphic pattern (mean graph) to display differential cell growth inhibition (K.D. Paull, R.H. Shoemaker, L. Hodes, A. Monks, D.A. Scudiero, L. Rubinstein, J. Plowman and M.R. Boyd, J. Nail. Cancer Inst., 81, 1088, 1989.) In the mean graph, the arithmetic mean of the logarithm of the GI50 (50% growth inhibition), TGI (total growth inhibition) or LC50 (50% lethal concentration) values is used as an anchor point. […] The length of a bar is indicative of differential cytotoxicity against a specific type of tumor cells or tumor panels.
(§4) The antitumor cytotoxicity of the selenophene compounds tested in those in vitro assays was measured by a microculture assay using either a 3-(4,5-dimethylthiazol-2-yl)-2,5-diphenyltetrazolium bromide (MTT) or sulforhodamine B (SRB) based assay. [M.R. Boyd in "Principles and Practices of Oncology," V.T. DeVita, Jr.]. The experiments were conducted at Purdue University in 96-well microtiter plates and the cytotoxic effects of the selenophene compounds on those cells were measured by cell count using a Coulter Z.F. counter (Hialeah, FL). The results are expressed as GI50, the concentration of drug at which cell numbers are reduced to 50% of control cell culture [T.C.K. Chan, C.J. Chang, N.M. Koonchanok and R.L. Geahlen, Biochem. Biophys. Res. Commun., 193, 1152, (1993); S. Hellman and S.A. Rosenberg (Eds.), Vol. 3, PPO Updates, Number 10, (1989).]
(§5) This in vitro microculture assay has an advantage over in vivo assays in that results are obtained within a week as opposed to several months. The MTT assay is based on the production of a dark blue formazan product by dehydrogenase in the mitochondria of live tumor cells after exposure to drug for 6 days [M.C. Alley, D.A. Scudiero, A. Monks, M.L. Hursey, M.J. Czerwinski, D.L. Fine, B.J. Abbott, J.G. Mayo, R.H. Shoemaker and M.R. Boyd, Cancer Res., 48, 589, 1988]. Thus, only live cells are stained and can be measured at 570 nm. […]

A498 = conditions: A498, read-out: Log10 LC50 (converted)
Source text: as §1, §2, §3, §4, §5

A549/ATCC = conditions: A549, read-out: Log10 LC50 (converted)
Source text: as §1, §2, §3, §4, §5

BT-549 = conditions: BT-549, read-out: Log10 LC50 (converted)
Source text: as §1, §2, §3, §4, §5

DU-145 = conditions: DU-145, read-out: Log10 LC50 (converted)
Source text: as §1, §2, §3, §4, §5

HCC-2998 = conditions: HCC 2998, read-out: Log10 LC50 (converted)
Source text: as §1, §2, §3, §4, §5

HCT-116 = conditions: HCT-116, read-out: Log10 LC50 (converted)
Source text: as §1, §2, §3, §4, §5

HCT-15 = conditions: HCT-15, read-out: Log10 LC50 (converted)
Source text: as §1, §2, §3, §4, §5

HOP-62 = conditions: HOP-62, read-out: Log10 LC50 (converted)
Source text: as §1, §2, §3, §4, §5

HOP-92 = conditions: HOP-92, read-out: Log10 LC50 (converted)
Source text: as §1, §2, §3, §4, §5

IGROV1 = conditions: IGROV-1, read-out: Log10 LC50 (converted)
Source text: as §1, §2, §3, §4, §5

K-562 = conditions: K562, read-out: Log10 LC50 (converted)
Source text: as §1, §2, §3, §4, §5

M14 = conditions: M14, read-out: Log10 LC50 (converted)
Source text: as §1, §2, §3, §4, §5

MOLT-4 = conditions: MOLT-4, read-out: Log10 LC50 (converted)
Source text: as §1, §2, §3, §4, §5

NCI-H322M = conditions: read-out: Log10 LC50 (converted)
Source text: as §1, §2, §3, §4, §5

NCI-H460 = conditions: NCI-H460, read-out: Log10 LC50 (converted)
Source text: as §1, §2, §3, §4, §5

OVCAR-4 = conditions: OVCAR-4, read-out: Log10 LC50 (converted)
Source text: as §1, §2, §3, §4, §5

SF-539 = conditions: SF-539, read-out: Log10 LC50 (converted)
Source text: as §1, §2, §3, §4, §5

SK-MEL-28 = conditions: SK-MEL-28, read-out: Log10 LC50 (converted)
Source text: as §1, §2, §3, §4, §5

SR = conditions: read-out: Log10 LC50 (converted)
Source text: as §1, §2, §3, §4, §5

UACC-62 = conditions: UACC-62, read-out: Log10 LC50 (converted)
Source text: as §1, §2, §3, §4, §5

SMILES	CC50 (786-0) [µM]	CC50 (A498) [µM]	CC50 (A549/ATCC) [µM]	CC50 (BT-549) [µM]	CC50 (DU-145) [µM]	CC50 (HCC-2998) [µM]	CC50 (HCT-116) [µM]	CC50 (HCT-15) [µM]	CC50 (HOP-62) [µM]	CC50 (HOP-92) [µM]	CC50 (IGROV1) [µM]	LC50 (K-562) [µM]	CC50 (M14) [µM]	CC50 (MOLT-4) [µM]	LC50 (concentration killing 50% of cells) (NCI-H322M) [µM]	LC50 (concentration killing 50% of cells) (NCI-H460) [µM]	CC50 (OVCAR-4) [µM]	CC50 (SF-539) [µM]	CC50 (SK-MEL-28) [µM]	CC50 (UACC-62) [µM]	other results
OCc1ccc(-c2ccc(-c3ccc(CO)[se]3)s2)s1	57.5	0.0724	> 100	> 100	> 100	44.7	81.3	> 100	85.1	> 100	28.2	97.7	> 100	> 100	> 100	28.8	81.3	83.2	> 100	> 100	CC50 (SR): > 100 µM
OCc1ccc(-c2ccc(-c3ccc(CO)[se]3)[se]2)[se]1	70.8	7.24	53.7	> 100	46.8	12.6	> 100	55	57.5	55	30.2	70.8	49	> 100	52.5	81.3	49	95.5	> 100	44.7	CC50 (SR): > 100 µM
O=Cc1ccc(-c2ccc(-c3cccs3)[se]2)s1	> 100	0.933	> 100	> 100	> 100	20.9	> 100	> 100	> 100	> 100	> 100	> 100	> 100	> 100	> 100	> 100	> 100	> 100	> 100	85.1	CC50 (SR): > 100 µM
O=Cc1ccc(-c2ccc(-c3ccc(C=O)s3)[se]2)s1	> 100	4.07	> 100	> 100	> 100	74.1	> 100	> 100	> 100	> 100	> 100	> 100	> 100	> 100	> 100	> 100	> 100	> 100	> 100	> 100	CC50 (SR): > 100 µM
O=Cc1ccc(-c2ccc(-c3ccc(C=O)[se]3)s2)[se]1	> 100	–	> 100	> 100	> 100	> 100	> 100	> 100	> 100	> 100	> 100	> 100	> 100	> 100	> 100	> 100	> 100	> 100	> 100	> 100	CC50 (SR): > 100 µM
O=Cc1ccc(-c2ccc(-c3ccc[se]3)[se]2)[se]1	43.7	6.31	51.3	79.4	51.3	38.9	38.9	79.4	74.1	63.1	39.8	> 100	72.4	> 100	60.3	40.7	60.3	63.1	55	66.1	–
O=Cc1ccc(-c2ccc(-c3ccc(C=O)[se]3)[se]2)[se]1	> 100	6.76	> 100	> 100	> 100	> 100	> 100	> 100	> 100	> 100	74.1	> 100	> 100	> 100	> 100	> 100	> 100	> 100	> 100	> 100	CC50 (SR): > 100 µM
OCc1ccc(-c2ccc(-c3ccc(CO)s3)[se]2)s1	> 100	0.158	> 100	> 100	> 100	> 100	> 100	> 100	> 100	> 100	–	> 100	> 100	> 100	> 100	> 100	> 100	> 100	> 100	> 100	CC50 (SR): > 100 µM
OCc1ccc(-c2ccc(-c3ccc[se]3)[se]2)[se]1	17.4	0.692	46.8	–	46.8	53.7	32.4	> 100	44.7	38	12.3	> 100	61.7	> 100	47.9	22.9	47.9	51.3	53.7	67.6	CC50 (SR): > 100 µM
